SMILES strings stand for the structures.

Usually EC50 stands for the concentration at which the effect is half-maximal.

This assay relates to Vaccinia virus. Nature of the assay: Antiviral activity against Vaccinia virus infected in HEL cells assessed as reduction of virus-induced cytopathogenicity. The assay is classed as functional, organism-based. As to conditions: Orthopoxvirus vaccinia. (In general: Cytopathic effects are the visible damage that an infection or toxin causes in cultured cells.)
On to `CCOP(=O)(OCC)[C@@H]1C[C@H](C(=O)Nc2cc3c4c(cccc4c2)C(=O)N(CCN(C)C)C3=O)ON1C` (racemic), for which the EC50 is greater than 45 µM.
Next, `CCOP(=O)(OCC)[C@@H]1C[C@@H](C(=O)Nc2cc3c4c(cccc4c2)C(=O)N(CCN(C)C)C3=O)ON1C` (racemic): greater than 45 µM.
Regarding `CCOP(=O)(OCC)[C@@H]1C[C@H](C(=O)Nc2cc3c4c(cccc4c2)C(=O)N(CCN2CCCC2)C3=O)ON1C` (racemic), the concentration for a half-maximal effect (EC50) was 50 µM.
With `CCOP(=O)(OCC)[C@@H]1C[C@@H](C(=O)Nc2cc3c4c(cccc4c2)C(=O)N(CCN2CCCC2)C3=O)ON1C` (relative stereo) the figure was greater than 45 µM.
Next, `Nc1nc2c(ncn2COCCO)c(=O)[nH]1` [ACYCLOVIR]: greater than 250 µM.
As to `O=c1[nH]c(=O)n([C@H]2C[C@H](O)[C@@H](CO)O2)cc1/C=C/Br` [BRIVUDINE], the half-maximal effective concentration (EC50) is 17 µM.
As to `Nc1ccn(C[C@@H](CO)OCP(=O)(O)O)c(=O)n1` [CIDOFOVIR], the EC50 was found to be 22 µM.
As for `Nc1nc2c(ncn2COC(CO)CO)c(=O)[nH]1` [GANCICLOVIR], the concentration for a half-maximal effect (EC50) is greater than 100 µM.

Source of the values: ChEMBL document CHEMBL3585293, “Design, antiviral and cytostatic properties of isoxazolidine-containing amonafide analogues” (Bioorg Med Chem, 2015).
